US20250262186A1 (SANOFI, priority 2022, published 2025)
Structures can show the parent of a compound that is named as a salt.

Target: T1, ERα (Homo sapiens, UniProt P03372)
T1 construct: made using a breast cancer cell ERα in cell western assay; host or cells: MCF7
T1 sequence (P03372 1-595): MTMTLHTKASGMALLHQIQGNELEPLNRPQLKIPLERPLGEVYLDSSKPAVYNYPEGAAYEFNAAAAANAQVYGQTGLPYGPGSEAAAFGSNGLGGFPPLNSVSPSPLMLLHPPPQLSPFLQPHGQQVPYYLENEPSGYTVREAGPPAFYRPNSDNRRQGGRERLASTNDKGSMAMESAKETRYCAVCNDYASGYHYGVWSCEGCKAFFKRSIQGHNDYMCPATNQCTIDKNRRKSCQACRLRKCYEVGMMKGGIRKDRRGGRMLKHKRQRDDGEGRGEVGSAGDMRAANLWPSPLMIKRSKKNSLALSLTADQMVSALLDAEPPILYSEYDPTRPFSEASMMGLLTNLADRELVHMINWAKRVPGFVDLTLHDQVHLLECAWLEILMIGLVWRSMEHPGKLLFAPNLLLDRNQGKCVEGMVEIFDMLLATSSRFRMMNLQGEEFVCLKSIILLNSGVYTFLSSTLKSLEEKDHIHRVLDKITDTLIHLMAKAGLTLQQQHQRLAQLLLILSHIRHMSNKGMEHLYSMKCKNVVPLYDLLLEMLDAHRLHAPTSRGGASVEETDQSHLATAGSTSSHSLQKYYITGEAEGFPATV
Test: Estrogen receptor degradation activity: breast cancer cell ERα in cell western assay in MCF7 cells
Assay type: cell-based
Settings: for % Degradation At 0.3 μM: 4 hours, relative to fulvestrant 0.1 μM positive control
Method: Said test involves measuring the in vitro degradation activity of the compounds of the Table 1a.
The measurements of the degradation activities were made using a breast cancer cell ERα in cell western assay as described hereunder.
MCF7 cells (ATCC) were seeded in 384 wells microplate (collagen coated) at a concentration of 10000 cells/30 μL per well in red phenol free MEM alpha medium (invitrogen) containing 5% charcoal dextran striped FBS. The following day, 9 points serial 1:5 dilution of each compound was added to the cells in 2.5 μL at final concentrations ranging from 0.3-0.0000018 μM (in table 2), or 0.1 μM for fulvestrant (using as positive control). At 4 hours post compound addition the cells were fixed by adding 25 μL of formalin (final concentration 5% formalin containing 0.1% triton) for 10 minutes at room temperature and then washed twice with PBS. Then, 50 μL of LI-COR blocking buffer containing 0.1% Triton was added to plate for 30 minutes at room temperature. LI-COR blocking buffer was removed and cells were incubated overnight at cold room with 50 μL anti-ER rabbit monoclonal antibody (Thermo scientific MA1-39540) diluted at 1:1000 in LI-COR blocking buffer containing 0.1% tween-20. Wells which were treated with blocking buffer but no antibody were used as background control. Wells were washed twice with PBS (0.1% tween-20) and incubated at 37° C. for 60 minutes in LI-COR (0.1% tween-20) containing goat anti-rabbit antibody Alexa 488 (1:1000) and Syto-64 a DNA dye (2 μM final concentration). Cells were then washed 3 times in PBS and scanned in ACUMEN explorer (TTP-Labtech). Integrated intensities in the green fluorescence and red fluorescence were measured to determine the levels of ERα and DNA respectively.
The degradation activity with respect to estrogen receptors in this test is given by the concentration which degrades 50% of the estrogen receptor (or IC50) in nM.
The % of ERα levels decrease were determined as follows: % inhibition=100*(1−(sample−fulvestrant: DMSO−fulvestrant)).

In the case of O=C(O)c1ccc2c(c1)CCCC(c1ccc(Cl)cc1Cl)=C2c1cccc(CC2CN(CCCF)C2)c1 [Compound 31, 8-(2,4-dichlorophenyl)-9-(3-((1-(3-fluoropropyl)azetidin-3-yl)methyl)phenyl)-6,7-dihydro-5H-benzo[7]annulene-3-carboxylic acid], the “% Degradation At 0.3 μM” value is reported as 58%.

Oc1ccc2c(c1)SCCC(c1ccc(Cl)cc1Cl)=C2c1cccc(O[C@@H]2CCN(CCCF)C2)c1 [Compound 41, (R)-4-(2,4-dichlorophenyl)-5-(3-((1-(3-fluoropropyl)pyrrolidin-3-yl)oxy)phenyl)-2,3-dihydrobenzo[b]thiepin-8-ol] was tested, and the “% Degradation At 0.3 μM” value was 75%.

O=C(O)c1ccc2c(c1)CCCC(c1ccc(F)cc1Cl)=C2c1cccc(O[C@@H]2CCN(CCCF)C2)c1 [Compound 5, (R)-8-(2-chloro-4-fluorophenyl)-9-(3-((1-(3-fluoropropyl)pyrrolidin-3-yl)oxy)phenyl)-6,7-dihydro-5H-benzo[7]annulene-3-carboxylic acid] was tested, and the “% Degradation At 0.3 μM” value was 91%.

O=C(O)c1ccc2c(c1)CCCC(c1ccc(Cl)cc1Cl)=C2c1cccc(NC2CN(CCCF)C2)c1 [Compound 32, 8-(2,4-dichlorophenyl)-9-(3-((1-(3-fluoropropyl)azetidin-3-yl)amino)phenyl)-6,7-dihydro-5H-benzo[7]annulene-3-carboxylic acid] was tested, and the “% Degradation At 0.3 μM” value was 70%.

With O=C(O)c1ccc2c(c1)CCCC(c1ccc(Cl)cc1Cl)=C2c1cccc(CC2CCN(CCCF)C2)c1 (single isomer, unassigned; isomer 1) [Compound 28, 8-(2,4-dichlorophenyl)-9-(3-((1-(3-fluoropropyl)pyrrolidin-3-yl)methyl)phenyl)-6,7-dihydro-5H-benzo[7]annulene-3-carboxylic acid, Isomer 1] the “% Degradation At 0.3 μM” value was 87%.

In the case of Cc1cc(F)ccc1C1=C(c2cccc(O[C@@H]3CCN(CCCF)C3)c2C)c2ccc(C(=O)O)cc2CCC1 [Compound 18, (R)-8-(4-fluoro-2-methylphenyl)-9-(3-((1-(3-fluoropropyl)pyrrolidin-3-yl)oxy)-2-methylphenyl)-6,7-dihydro-5H-benzo[7]annulene-3-carboxylic acid], the “% Degradation At 0.3 μM” value is reported as 78%.

For Cc1c(O[C@@H]2CCN(CCCF)C2)cccc1C1=C(c2ccccc2Cl)CCCc2cc(C(=O)O)ccc21 [Compound 16, (R)-8-(2-chlorophenyl)-9-(3-((1-(3-fluoropropyl)pyrrolidin-3-yl)oxy)-2-methylphenyl)-6,7-dihydro-5H-benzo[7]annulene-3-carboxylic acid], the “% Degradation At 0.3 μM” value was 97%.

In the case of Cl.O=C(O)c1ccc2c(c1)CCCC(C1CCC(F)(F)CC1)=C2c1cccc(O[C@@H]2CCN(CCCF)C2)c1 [Compound 10, (R)-8-(4,4-difluorocyclohexyl)-9-(3-((1-(3-fluoropropyl)pyrrolidin-3-yl)oxy)phenyl)-6,7-dihydro-5H-benzo[7]annulene-3-carboxylic acid hydrochloride], the “% Degradation At 0.3 μM” value is reported as 85%.

With O=C(O)c1ccc2c(c1)CCCC(c1ccc(Cl)cc1F)=C2c1cccc(O[C@@H]2CCN(CCCF)C2)c1 [Compound 6, (R)-8-(4-chloro-2-fluorophenyl)-9-(3-((1-(3-fluoropropyl)pyrrolidin-3-yl)oxy)phenyl)-6,7-dihydro-5H-benzo[7]annulene-3-carboxylic acid] the “% Degradation At 0.3 μM” value was 89%.

In the case of CC1CCc2cc(C(=O)O)ccc2C(c2cccc(OC3CCN(CCCF)C3)c2)=C1c1cccc(Cl)c1 (single isomer, unassigned; isomer 1) [Compound 36], the “% Degradation At 0.3 μM” value is reported as 69%.

With O=C(O)c1ccc2c(c1)CCCC(c1ccccc1)=C2c1cccc(O[C@@H]2CCN(CCCF)C2)c1 [Compound 2, (R)-9-(3-((1-(3-fluoropropyl)pyrrolidin-3-yl)oxy)phenyl)-8-phenyl-6,7-dihydro-5H-benzo[7]annulene-3-carboxylic acid] the “% Degradation At 0.3 μM” value was 81%.

For CC1CCC(C2=C(c3cccc(OC4CCN(CCCF)C4)c3)c3ccc(C(=O)O)cc3CCC2)CC1 (single isomer, unassigned; isomer 1) [Compound 11], the “% Degradation At 0.3 μM” value was 76%.

With O=C(O)c1ccc2c(c1)CCCC(c1ccccc1Cl)=C2c1cc(O[C@@H]2CCN(CCCF)C2)ccc1F [Compound 26, (R)-8-(2-chlorophenyl)-9-(2-fluoro-5-((1-(3-fluoropropyl)pyrrolidin-3-yl)oxy)phenyl)-6,7-dihydro-5H-benzo[7]annulene-3-carboxylic acid, hydrochloride] the “% Degradation At 0.3 μM” value was 90%.

Cl.O=C(O)c1ccc2c(c1)CCC(c1ccc(Cl)cc1Cl)=C2c1cccc(O[C@@H]2CCN(CCCF)C2)c1 [Compound 40, (R)-6-(2,4-dichlorophenyl)-5-(3-((1-(3-fluoropropyl)pyrrolidin-3-yl)oxy)phenyl)-7,8-dihydronaphthalene-2-carboxylic acid hydrochloride] was tested, and the “% Degradation At 0.3 μM” value was 88%.

For Cl.O=C(O)c1ccc2c(c1)CCCC(c1ccc(Cl)cc1Cl)=C2c1cc(O[C@@H]2CCN(CCCF)C2)ccc1F [Compound 27, (R)-8-(2,4-dichlorophenyl)-9-(2-fluoro-5-((1-(3-fluoropropyl)pyrrolidin-3-yl)oxy)phenyl)-6,7-dihydro-5H-benzo[7]annulene-3-carboxylic acid hydrochloride], the “% Degradation At 0.3 μM” value was 89%.

In the case of Cc1ccc(C2=C(c3cccc(O[C@@H]4CCN(CCCF)C4)c3)c3ccc(C(=O)O)cc3CCC2)c(F)c1 [Compound 7, (R)-8-(2-fluoro-4-methylphenyl)-9-(3-((1-(3-fluoropropyl)pyrrolidin-3-yl)oxy)phenyl)-6,7-dihydro-5H-benzo[7]annulene-3-carboxylic acid], the “% Degradation At 0.3 μM” value is reported as 85%.

CC1CCC(C2=C(c3cccc(OC4CCN(CCCF)C4)c3)c3ccc(C(=O)O)cc3CCC2)CC1 (single isomer, unassigned; isomer 2) [Compound 12] was tested, and the “% Degradation At 0.3 μM” value was 84%.

O=C(O)c1ccc2c(c1)CCCC(c1ccc(Cl)cc1Cl)=C2c1cccc(O[C@@H]2CCN(CCCF)C2)c1 [Compound 1, (R)-8-(2,4-dichlorophenyl)-9-(3-((1-(3-fluoropropyl)pyrrolidin-3-yl)oxy)phenyl)-6,7-dihydro-5H-benzo[7]annulene-3-carboxylic acid] was tested, and the “% Degradation At 0.3 μM” value was 85%.

In the case of O=C(O)c1ccc2c(c1)CCCC(c1ccc(Cl)cc1Cl)=C2c1cccc(O[C@H]2CCN(CCCF)C2)c1 [Compound 1a, (S)-8-(2,4-dichlorophenyl)-9-(3-((1-(3-fluoropropyl)pyrrolidin-3-yl)oxy)phenyl)-6,7-dihydro-5H-benzo[7]annulene-3-carboxylic acid], the “% Degradation At 0.3 μM” value is reported as “Inactive” and the “degradation activity for estrogen receptors (in words)” value (text statement on comparative compounds) is reported as “inactive”.

For O=C(O)c1ccc2c(c1)CCCC(c1ccccc1Cl)=C2c1cccc(O[C@@H]2CCN(CCCF)C2)c1 [Compound 3, (R)-8-(2-chlorophenyl)-9-(3-((1-(3-fluoropropyl)pyrrolidin-3-yl)oxy)phenyl)-6,7-dihydro-5H-benzo[7]annulene-3-carboxylic acid], the “% Degradation At 0.3 μM” value was 84%.

O=C(O)c1ccc2c(c1)CCCC(C1CCCC1)=C2c1cccc(O[C@@H]2CCN(CCCF)C2)c1 [Compound 14, (R)-8-cyclopentyl-9-(3-((1-(3-fluoropropyl)pyrrolidin-3-yl)oxy)phenyl)-6,7-dihydro-5H-benzo[7]annulene-3-carboxylic acid] was tested, and the “% Degradation At 0.3 μM” value was 77%.

With Cl.O=C(O)c1ccc2c(c1)CCCC(c1ccccc1)=C2c1cc(O[C@@H]2CCN(CCCF)C2)ccc1F [Compound 25, (R)-9-(2-fluoro-5-((1-(3-fluoropropyl)pyrrolidin-3-yl)oxy)phenyl)-8-phenyl-6,7-dihydro-5H-benzo[7]annulene-3-carboxylic acid, hydrochloride] the “% Degradation At 0.3 μM” value was 77%.
